# Target: T1, Human BCL-XL protein (N-terminal HiBiT tagged BCL-XL in HT1080 cells) (Homo sapiens, UniProt Q07817)
# T1 construct: expressed in transfected cells; host or cells: HT-1080 (ATCC CCL-121), stably transduced with lentivirus pLV-UBC-N-HiBiT-BCL-XL-PGK-puro and selected with puromycin
# Assay: HiBiT based degradation assay
# Assay type: cell-based
# Conditions: HT1080 cells expressing HiBiT-BCL-XL, 24 h; for Ymin (24 h): BCL-XL degradation normalized with DMSO control; for DC50: BCL-XL degradation, read-out: EC50 (24 h)
# Procedure, shortened: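 This HiBiT degradation assay measured loss of BCL-XL in HT1080 cells that stably express an N-terminal HiBiT-BCL-XL fusion delivered by lentivirus. Cells were added to compound-spotted 384-well plates, and luminescence was read on a PHERAstar FSX reader. Signal was expressed relative to DMSO controls, curves were fitted by four-parameter logistic regression, and for hook-shaped curves the Ymin point served as the bottom plateau when calculating EC50.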
# T1 sequence (Q07817 whole entry): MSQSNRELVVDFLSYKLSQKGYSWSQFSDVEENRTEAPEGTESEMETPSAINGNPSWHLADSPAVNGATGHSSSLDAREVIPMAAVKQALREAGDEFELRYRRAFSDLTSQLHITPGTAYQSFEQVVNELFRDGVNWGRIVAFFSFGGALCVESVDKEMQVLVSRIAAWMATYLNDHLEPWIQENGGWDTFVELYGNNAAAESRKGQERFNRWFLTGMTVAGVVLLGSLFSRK
Compound,Ymin (24 h),DC50 [nM]
"Cc1c(O[C@H]2CC[C@H](CCCN3CCN(c4ccc5c(C6CCC(=O)NC6=O)nn(C)c5c4)C[C@@H]3C)CC2)cccc1-c1ccc(N2CCc3cccc(C(=O)Nc4nc5ccccc5s4)c3C2)nc1C(=O)O (stereo partly drawn) [Compound 273b, 6-(8-(benzo[d]thiazol-2-ylcarbamoyl)-3,4-dihydroisoquinolin-2(1H)-yl)-3-(3-(((1R,4r)-4-(3-((2S)-4-(3-(2,6-dioxopiperidin-3-yl)-1-methyl-1H-indazol-6-yl)-2-methylpiperazin-1-yl)propyl)cyclohexyl)oxy)-2-methylphenyl)picolinic acid]",A (Ymin < 50%),< 100
"Cc1c(O[C@H]2CC[C@H](CCCN3CCN(c4cccc5c(C6CCC(=O)NC6=O)nn(C)c45)[C@H](C)C3)CC2)cccc1-c1ccc(N2CCc3cccc(C(=O)Nc4nc5ccccc5s4)c3C2)nc1C(=O)O (stereo partly drawn) [Compound 274a, 6-(8-(benzo[d]thiazol-2-ylcarbamoyl)-3,4-dihydroisoquinolin-2(1H)-yl)-3-(3-(((1S,4r)-4-(3-((3R)-4-(3-(2,6-dioxopiperidin-3-yl)-1-methyl-1H-indazol-7-yl)-3-methylpiperazin-1-yl)propyl)cyclohexyl)oxy)-2-methylphenyl)picolinic acid]",A (Ymin < 50%),< 100
"Cc1c(O[C@H]2CC[C@H](CCCN3CCN(c4cccc5c(C6CCC(=O)NC6=O)nn(C)c45)[C@@H](C)C3)CC2)cccc1-c1ccc(N2CCc3cccc(C(=O)Nc4nc5ccccc5s4)c3C2)nc1C(=O)O (stereo partly drawn) [Compound 274b, 6-(8-(benzo[d]thiazol-2-ylcarbamoyl)-3,4-dihydroisoquinolin-2(1H)-yl)-3-(3-(((1R,4r)-4-(3-((3S)-4-(3-(2,6-dioxopiperidin-3-yl)-1-methyl-1H-indazol-7-yl)-3-methylpiperazin-1-yl)propyl)cyclohexyl)oxy)-2-methylphenyl)picolinic acid]",A (Ymin < 50%),< 100
"Cc1c(O[C@H]2CC[C@H](CCCN3CCN(c4cccc5c(C6CCC(=O)NC6=O)nn(C)c45)C[C@H]3C)CC2)cccc1-c1ccc(N2CCc3cccc(C(=O)Nc4nc5ccccc5s4)c3C2)nc1C(=O)O (stereo partly drawn) [Compound 275a, 6-(8-(benzo[d]thiazol-2-ylcarbamoyl)-3,4-dihydroisoquinolin-2(1H)-yl)-3-(3-(((1S,4r)-4-(3-((2R)-4-(3-(2,6-dioxopiperidin-3-yl)-1-methyl-1H-indazol-7-yl)-2-methylpiperazin-1-yl)propyl)cyclohexyl)oxy)-2-methylphenyl)picolinic acid]",A (Ymin < 50%),< 100
"Cc1c(O[C@H]2CC[C@H](CCCN3CCN(c4cccc5c(C6CCC(=O)NC6=O)nn(C)c45)C[C@@H]3C)CC2)cccc1-c1ccc(N2CCc3cccc(C(=O)Nc4nc5ccccc5s4)c3C2)nc1C(=O)O (stereo partly drawn) [Compound 275b, 6-(8-(benzo[d]thiazol-2-ylcarbamoyl)-3,4-dihydroisoquinolin-2(1H)-yl)-3-(3-(((1R,4r)-4-(3-((2S)-4-(3-(2,6-dioxopiperidin-3-yl)-1-methyl-1H-indazol-7-yl)-2-methylpiperazin-1-yl)propyl)cyclohexyl)oxy)-2-methylphenyl)picolinic acid]",C (Ymin ≥ 70%),< 100
"Cc1c(OCCC2CC3(C2)CN(CC(=O)Nc2ccc4c(C5CCC(=O)NC5=O)nn(C)c4c2)C3)cccc1-c1ccc(N2CCc3cccc(C(=O)Nc4nc5ccccc5s4)c3C2)nc1C(=O)O (stereo not drawn) [Compound 277, 6-(8-(benzo[d]thiazol-2-ylcarbamoyl)-3,4-dihydroisoquinolin-2(1H)-yl)-3-(3-(2-(2-(2-((3-(2,6-dioxopiperidin-3-yl)-1-methyl-1H-indazol-6-yl)amino)-2-oxoethyl)-2-azaspiro[3.3]heptan-6-yl)ethoxy)-2-methylphenyl)picolinic acid]",A (Ymin < 50%),< 100
"Cc1c(O[C@H]2CC[C@H](CCCN3CCN(c4ccc5c(C6CCC(=O)NC6=O)nn(C)c5c4)[C@H](C)C3)CC2)cccc1-c1ccc(N2CCc3cccc(C(=O)Nc4nc5ccccc5s4)c3C2)nc1C(=O)O (stereo partly drawn) [Compound 278a, 6-(8-(benzo[d]thiazol-2-ylcarbamoyl)-3,4-dihydroisoquinolin-2(1H)-yl)-3-(3-(((1S,4r)-4-(3-((3R)-4-(3-(2,6-dioxopiperidin-3-yl)-1-methyl-1H-indazol-6-yl)-3-methylpiperazin-1-yl)propyl)cyclohexyl)oxy)-2-methylphenyl)picolinic acid]",A (Ymin < 50%),< 100
"Cc1c(O[C@H]2CC[C@H](CCCN3CCN(c4ccc5c(C6CCC(=O)NC6=O)nn(C)c5c4)[C@@H](C)C3)CC2)cccc1-c1ccc(N2CCc3cccc(C(=O)Nc4nc5ccccc5s4)c3C2)nc1C(=O)O (stereo partly drawn) [Compound 278b, 6-(8-(benzo[d]thiazol-2-ylcarbamoyl)-3,4-dihydroisoquinolin-2(1H)-yl)-3-(3-(((1R,4r)-4-(3-((3S)-4-(3-(2,6-dioxopiperidin-3-yl)-1-methyl-1H-indazol-6-yl)-3-methylpiperazin-1-yl)propyl)cyclohexyl)oxy)-2-methylphenyl)picolinic acid]",A (Ymin < 50%),< 100
"Cc1c(OCCCC2CCN(CC3CCN(c4cccc5c(C6CCC(=O)NC6=O)nn(C)c45)CC3)CC2)cccc1-c1ccc(N2CCc3cccc(C(=O)Nc4nc5ccccc5s4)c3C2)nc1C(=O)O (stereo not drawn) [Compound 279, 6-[8-(1,3-benzothiazol-2-ylcarbamoyl)-3,4-dihydro-1H-isoquinolin-2-yl]-3-[3-[3-[1-[[1-[3-(2,6-dioxo-3-piperidyl)-1-methyl-indazol-7-yl]-4-piperidyl]methyl]-4-piperidyl]propoxy]-2-methyl-phenyl]pyridine-2-carboxylic acid]",A (Ymin < 50%),< 100
"Cc1c(OCCCc2ccc(CC(=O)Nc3ccc4c(C5CCC(=O)NC5=O)nn(C)c4c3)nc2)cccc1-c1ccc(N2CCc3cccc(C(=O)Nc4nc5ccccc5s4)c3C2)nc1C(=O)O (stereo not drawn) [Compound 280, 6-[8-(1,3-benzothiazol-2-ylcarbamoyl)-3,4-dihydro-1H-isoquinolin-2-yl]-3-[3-[3-[6-[2-[[3-(2,6-dioxo-3-piperidyl)-1-methyl-indazol-6-yl]amino]-2-oxo-ethyl]-3-pyridyl]propoxy]-2-methyl-phenyl]pyridine-2-carboxylic acid]",B (50% ≤ Ymin < 70%),< 100
"Cc1c(OCCCCC2CCN(CC3CCN(c4cccc5c(C6CCC(=O)NC6=O)nn(C)c45)CC3)CC2)cccc1-c1ccc(N2CCc3cccc(C(=O)Nc4nc5ccccc5s4)c3C2)nc1C(=O)O (stereo not drawn) [Compound 285, 6-[8-(1,3-benzothiazol-2-ylcarbamoyl)-3,4-dihydro-1H-isoquinolin-2-yl]-3-[3-[4-[1-[[1-[3-(2,6-dioxo-3-piperidyl)-1-methyl-indazol-7-yl]-4-piperidyl]methyl]-4-piperidyl]butoxy]-2-methyl-phenyl]pyridine-2-carboxylic acid]",A (Ymin < 50%),< 100
"Cc1c(OCCCC2CC3(C2)CN(CC(=O)Nc2ccc4c(C5CCC(=O)NC5=O)nn(C)c4c2)C3)cccc1-c1ccc(N2CCc3cccc(C(=O)Nc4nc5ccccc5s4)c3C2)nc1C(=O)O (stereo not drawn) [Compound 286, 6-[8-(1,3-benzothiazol-2-ylcarbamoyl)-3,4-dihydro-1H-isoquinolin-2-yl]-3-[3-[3-[2-[2-[[3-(2,6-dioxo-3-piperidyl)-1-methyl-indazol-6-yl]amino]-2-oxo-ethyl]-2-azaspiro[3.3]heptan-6-yl]propoxy]-2-methyl-phenyl]pyridine-2-carboxylic acid]",A (Ymin < 50%),< 100
"Cc1c(OCCC2CCN(CCCC3CCN(c4ccc5c(C6CCC(=O)NC6=O)nn(C)c5c4)CC3)CC2)cccc1-c1ccc(N2CCc3cccc(C(=O)Nc4nc5ccccc5s4)c3C2)nc1C(=O)O (stereo not drawn) [Compound 287, 6-[8-(1,3-benzothiazol-2-ylcarbamoyl)-3,4-dihydro-1H-isoquinolin-2-yl]-3-[3-[2-[1-[3-[1-[3-(2,6-dioxo-3-piperidyl)-1-methyl-indazol-6-yl]-4-piperidyl]propyl]-4-piperidyl]ethoxy]-2-methyl-phenyl]pyridine-2-carboxylic acid]",A (Ymin < 50%),< 100
"Cc1c(OCCC2CCN(CCCC3CCN(c4cccc5c(C6CCC(=O)NC6=O)nn(C)c45)CC3)CC2)cccc1-c1ccc(N2CCc3cccc(C(=O)Nc4nc5ccccc5s4)c3C2)nc1C(=O)O (stereo not drawn) [Compound 288, 6-[8-(1,3-benzothiazol-2-ylcarbamoyl)-3,4-dihydro-1H-isoquinolin-2-yl]-3-[3-[2-[1-[3-[1-[3-(2,6-dioxo-3-piperidyl)-1-methyl-indazol-7-yl]-4-piperidyl]propyl]-4-piperidyl]ethoxy]-2-methyl-phenyl]pyridine-2-carboxylic acid]",A (Ymin < 50%),< 100
"Cc1c(CCCOC2CCN(CC(=O)Nc3ccc4c(C5CCC(=O)NC5=O)nn(C)c4c3)CC2)cccc1-c1ccc(N2CCc3cccc(C(=O)Nc4nc5ccccc5s4)c3C2)nc1C(=O)O (stereo not drawn) [Compound 290, 6-[8-(1,3-benzothiazol-2-ylcarbamoyl)-3,4-dihydro-1H-isoquinolin-2-yl]-3-[3-[3-[[1-[2-[[3-(2,6-dioxo-3-piperidyl)-1-methyl-indazol-6-yl]amino]-2-oxo-ethyl]-4-piperidyl]oxy]propyl]-2-methyl-phenyl]pyridine-2-carboxylic acid]",A (Ymin < 50%),< 100

# — patent publication US20240238423A9, “TETRAHYDROISOQUINOLINE HETEROBIFUNCTIONAL BCL-XL DEGRADERS” (Treeline Biosciences, Inc., priority 2022, published 2024)
